The source of these data is PMC12005787, “Synthetic Lethality of SHP2 and XIAP Suppresses Proliferation and Metastasis in KRAS‐mutant Nonsmall Cell Lung Cancer” (Advanced Science, 2025).

Experiment [1] deals with T1, His‐SHP2 (Homo sapiens, UniProt Q06124).
T1 construct: His; made in house; host or cells: E. coli
In words: Isothermal titration calorimetry. Type of experiment: binding. As to conditions: read-out: KD value (ITC). Here is the method:
(§1) The purified His‐ΔSHP2, His‐SHP2, or His‐ΔSHP2^K325A proteins were dialyzed overnight in dialysis buffer (20 mM HEPES, 0.15 M NaCl, 1 mM TCEP, 10% glycerol, pH 7.5). The protein concentration was determined using the BCA Protein Assay Kit, and the purity of the proteins was detected by Coomassie Brilliant Blue staining. ITC experiments were performed when the protein concentration was higher than 2 mg mL^−1 and the purity was greater than 90%. The instrument (Malvern Instruments, USA) was considered to be functioning optimally for compound and protein titration experiments when the DP value was < 0.05 µcal s^−1 by the water droplet experiment. After the sample cell was cleaned twice with protein dialysis buffer, a protein sample (300 µL) was loaded to the sample cell, an equal amount of ultrapure water was added to the reference cell, and the compound solution dissolved with the same dialysis buffer was put into the corresponding cell, in which the protein‐compound molar ratio was 1:10–1:20. The parameters were adjusted based on the curve‐fitting results to determine the optimal binding concentration gradient. Based on the exothermic changes in the reaction, the entropy increase and enthalpy change were analyzed using software fitting to obtain parameters such as the binding coefficient and affinity constant between the small molecules and proteins.
A general note: Isothermal titration calorimetry measures the heat released or taken up as one component is titrated into another.

The target of experiment [2] is T2, His‐ΔSHP2 (Homo sapiens, UniProt Q06124).
T2 construct: His‐ΔSHP2, encompassing the peptide from amino acids 205–593 retaining PTP activity; His; made in house; host or cells: E. coli
T2 sequence (Q06124 205-593): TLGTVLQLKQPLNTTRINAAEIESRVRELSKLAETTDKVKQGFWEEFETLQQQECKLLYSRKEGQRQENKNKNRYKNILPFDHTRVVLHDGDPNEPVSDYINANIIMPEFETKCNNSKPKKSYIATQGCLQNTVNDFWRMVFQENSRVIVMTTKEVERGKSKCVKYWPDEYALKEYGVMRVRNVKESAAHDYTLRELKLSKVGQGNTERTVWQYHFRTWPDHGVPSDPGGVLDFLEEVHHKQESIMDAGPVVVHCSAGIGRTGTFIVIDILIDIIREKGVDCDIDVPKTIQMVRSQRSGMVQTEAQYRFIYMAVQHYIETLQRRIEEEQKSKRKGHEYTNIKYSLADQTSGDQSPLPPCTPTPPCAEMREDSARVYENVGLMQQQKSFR
In words: Isothermal titration calorimetry. Type of experiment: binding. The settings on record: read-out: KD value (ITC). Here is the method: as §1

Experiment [3] has as its target T3, His‐ΔSHP2^K325A (Homo sapiens, UniProt Q06124, K325A).
T3 construct: His‐ΔSHP2, encompassing the peptide from amino acids 205–593 retaining PTP activity; His; made in house; host or cells: E. coli BL21
In words: Isothermal titration calorimetry. Type of experiment: binding. As to conditions: read-out: KD value (ITC). Here is the method:
as §1, with “proteins. […]” for “proteins.”

Experiment [4] has as its system SW1417 cells. In words: Cell viability assay (CCK-8). As to conditions: Homo sapiens. Format: cell-based. Here is the method:
(§2) supplies are listed in Supplementary Table S5. […]
(§3) KRAS-mutant and wild-type cells are listed in Supplementary Table S7.
(§4) For the adherent cell viability assay, cells in the logarithmic growth phase were seeded in 96-well culture plates at a density of 5×103 well-1 and incubated overnight. Diluted compounds or DMSO were added, or specific treatments were incubated at 37 °C and 5% CO2 for 24 h or 48 h. Cell viability was determined using CCK-8 or CellLightTM Cell Viability Assay Kit, according to the manufacturer's protocol. The luminescence signals of the treated samples were normalized to those of the DMSO group. […]

The test system of experiment [5] is ACHN cells. Briefly: Cell viability assay (CCK-8). Type of experiment: cell-based. The settings on record: Homo sapiens. Here is the method:
as §2, §3, §4

For experiment [6], the system named is HCT15 cells. In words: Cell viability assay (CCK-8). Type of experiment: cell-based. The settings on record: Homo sapiens, HCT-15. Here is the method:
as §2, §3, §4

Experiment [7] deals with T4, SHP2 in NCI‐H2122 cells (Homo sapiens, UniProt Q06124).
T4 construct: endogenous in cells; host or cells: NCI-H2122
T4 sequence (Q06124 whole entry): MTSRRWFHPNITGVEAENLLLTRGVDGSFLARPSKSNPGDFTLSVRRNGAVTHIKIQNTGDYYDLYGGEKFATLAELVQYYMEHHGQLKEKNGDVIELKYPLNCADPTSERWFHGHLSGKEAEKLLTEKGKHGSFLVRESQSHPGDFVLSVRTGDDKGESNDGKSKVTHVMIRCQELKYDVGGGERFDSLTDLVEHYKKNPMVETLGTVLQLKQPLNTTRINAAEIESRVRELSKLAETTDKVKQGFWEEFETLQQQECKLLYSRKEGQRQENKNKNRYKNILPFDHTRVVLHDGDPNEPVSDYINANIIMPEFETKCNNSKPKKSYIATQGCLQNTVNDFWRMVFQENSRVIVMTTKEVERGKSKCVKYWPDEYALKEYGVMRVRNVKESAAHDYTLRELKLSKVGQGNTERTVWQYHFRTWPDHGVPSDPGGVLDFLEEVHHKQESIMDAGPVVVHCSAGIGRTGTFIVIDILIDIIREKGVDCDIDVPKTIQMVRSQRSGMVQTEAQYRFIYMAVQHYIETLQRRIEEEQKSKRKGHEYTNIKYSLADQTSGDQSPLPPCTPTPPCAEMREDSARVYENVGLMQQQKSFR
Briefly: Intracellular SHP2 activity (IP and DiFMUP). Type of experiment: cell-based. On the procedure:
To test intracellular SHP2 activity, the extract of NCI‐H2122 cells was precleared with protein A/G agarose beads and incubated with anti‐SHP2 antibody overnight at 4 °C, followed by further incubation with protein A/G agarose beads for 2 h at 4 °C. The Iimmunoprecipitates were suspended in sample buffer and detected in 96‐well black polystyrene plates using the fluorescent substrate DiFMUP under the same conditions as described above.

Each structure is given as a SMILES string. Like-named read-outs stand apart in the source and are kept apart here.

T3 sequence (Q06124 205-593 K325A): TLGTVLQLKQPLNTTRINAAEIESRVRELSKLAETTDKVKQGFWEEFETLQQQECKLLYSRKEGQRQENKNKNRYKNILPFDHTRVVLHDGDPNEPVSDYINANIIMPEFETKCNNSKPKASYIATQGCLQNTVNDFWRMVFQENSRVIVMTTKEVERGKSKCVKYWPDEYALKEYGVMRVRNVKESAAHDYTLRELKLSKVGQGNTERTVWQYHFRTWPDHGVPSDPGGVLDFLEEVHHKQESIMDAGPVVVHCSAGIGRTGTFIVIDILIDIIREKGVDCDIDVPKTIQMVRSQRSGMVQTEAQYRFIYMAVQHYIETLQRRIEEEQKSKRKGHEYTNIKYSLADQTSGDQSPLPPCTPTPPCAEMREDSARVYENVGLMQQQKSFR
T1 sequence (Q06124 whole entry): as the sequence (Q06124 whole entry) above

Broadly, the Kd is the free concentration of one partner at which half of the binding sites on the other are occupied at equilibrium, for simple one-to-one binding. For orientation: IC50 means the midpoint of a concentration-inhibition curve. For `CCCCCCCCCCCC1=C(O)C(=O)C=C(O)C1=O` [Embelin], the Kd in experiment [1] was determined as 0.0229 µM; in experiment [2], 0.22 µM; in experiment [3], 0.346 µM. The IC50 in experiment [4] (SW1417, 48 h, read-out: IC50 at 48 h) turned out to be 14.9 ± 0.34 µM; in experiment [4] (SW1417, RAS-wild type, 24 h, read-out: IC50 at 24 h), 65.39 ± 0.36 µM; in experiment [5] (48 h, read-out: IC50 at 48 h) it was 10.3 ± 0.7 µM; in experiment [5] (HRAS, 24 h, read-out: IC50 at 24 h), 27.4 ± 0.3 µM; in experiment [6] (HCT15, 48 h, read-out: IC50 at 48 h), 9.95 ± 0.38 µM; in experiment [6] (HCT15, KRAS G13D, 24 h, read-out: IC50 at 24 h), 12.8 ± 0.43 µM. The “effect on intracellular SHP2 activity” value in experiment [7] was “significantly inhibited”.
